# Results taken from patent publication US7273848B2, “Apolipoprotein A-I agonists and their use to treat dyslipidemic disorders” (priority 1997, dated 2007).
# Like-named read-outs stand apart in the source and are kept apart here. Non-standard residues stand in square brackets, D forms with d. Residues, ends and D or L forms follow the SMILES beside them. No end group written: not given here. Aib = CC(C)(N)C(=O)O
# Tests used:
# [1] = Circular dichroism helicity determination; type: physicochemical; conditions: for He (%) TFE: 5 μM peptide, 90% vol TFE; for He (%) TFE / He (%) SUVs: 37° C.; for He (%) free: unbound peptide 5 μM in 5 mM phosphate buffer, pH 7.4, 37° C.; for He (%) SUVs: peptide-SUV complexes (20:1 EPC:Chol., Ri=30 and Ri=50)
# Description: Far UV circular dichroism spectra were recorded between 190 and 260 nm (in 0.5 nm or 0.2 nm increments) with a AVIV62DS spectrometer (AVIV Associates, Lakewood, N.J., USA) equipped with a thermoelectric cell holder and sample changer. The instrument was calibrated with (+)-10-[…]. Between one and three scans were collected for each sample, using 10 cm, 5 cm, 1 cm and 0.1 cm path length quartz Suprasil cells, respectively, for peptide concentrations of 10^−7 M to 10^−4 M. The bandwidth was fixed at 1.5 nm and the scan speed to 1s per wavelength step. The reported data are the mean of at least 2 or 3 independent measurements.
# After background substraction, spectra were converted to molar ellipticity (θ) per residue in deg. […] dmol^−1. The peptide concentration was determined by amino acid analysis and also by absorption spectrometry on a Perkin Elmer Lambda 17 UV/Visible spectrophotometer when the peptide contained a chromophore (tryptophane, dansyl, naphtylalanine).
# CD spectra were obtained with free, unbound peptide (5 μM in 5 mM phosphate buffer, pH 7.4); with peptide-SUV complexes (20:1 EPC:Chol., Ri=30 and Ri=50); with peptide-micelle complexes (1-myristoyl-2-hydroxy-sn-glycero-3-phosphatidyl choline, Ri=100); and with free, unbound peptide in the presence of 2,2,2-trifluoroethanol (TFE) (5 μM peptide, 90% vol TFE).
# The SUVs were obtained by dispersing the lipids (10 mM, 20:1 EPC:Chol., Avanti Polar Lipids, AL) in phosphate buffer (5 mM, pH 7.4) with bubbling N2 for 5 min., followed by sonication (1.5 hr.) in a bath sonicator. The homogeneity of the preparation was checked by FPLC.
# The micelles were obtained by dispersing the lipid (6 mM 1-myristoyl-2-hydroxy-sn-glycero-3-phosphatidyl choline, Avanti Polar Lipids, AL) in phosphate buffer (5 mM, pH 7.4) with bubbling N2 for 5 min., followed by vortexing.
# To obtain the peptide-SUV complexes, SUVs were added to the peptide (5 μM in 5 mM phosphate buffer, pH 7.4) at a phospholipid-peptide molar ratio (Ri) of 30 or 50.
# To obtain the peptide-micelle complexes, micelles were added to the peptide (5 μM in 5 mM phosphate buffer, pH 7.4) at a Ri of 100.
# All spectra were recorded at 37° C.
# The degree of helicity of the peptides in the various conditions was determined from the mean residue ellipticity at 222 nm (Chen et al., 1974, Biochemistry 13:3350-3359) or by comparing the CD spectra obtained to reference spectra available on databases (16 helical reference spectra from Provencher & Glockner, 1981, Biochemistry 20:33-37; denatured protein reference spectra from Venyaminov et al., 1993, Anal. Biochem. 214:17-24) using the CONTIN curve-fitting algorithm version 2DP, CD-1 pack (August 1982) (Provencher, 1982, Comput. Phys. Commun. 27:213-227, 229-242). Acceptable fit was determined using the statistical analysis methodology provided by the CONTIN algorithm. The error of all methods was ±5% helicity.
# [2] = biological target: T1, LCAT (purified from human plasma) (Homo sapiens, UniProt P04180); assay: LCAT activation assay; type: biochemical
# T1 construct: from tissue; host or cells: human plasma
# T1 sequence (P04180 25-440): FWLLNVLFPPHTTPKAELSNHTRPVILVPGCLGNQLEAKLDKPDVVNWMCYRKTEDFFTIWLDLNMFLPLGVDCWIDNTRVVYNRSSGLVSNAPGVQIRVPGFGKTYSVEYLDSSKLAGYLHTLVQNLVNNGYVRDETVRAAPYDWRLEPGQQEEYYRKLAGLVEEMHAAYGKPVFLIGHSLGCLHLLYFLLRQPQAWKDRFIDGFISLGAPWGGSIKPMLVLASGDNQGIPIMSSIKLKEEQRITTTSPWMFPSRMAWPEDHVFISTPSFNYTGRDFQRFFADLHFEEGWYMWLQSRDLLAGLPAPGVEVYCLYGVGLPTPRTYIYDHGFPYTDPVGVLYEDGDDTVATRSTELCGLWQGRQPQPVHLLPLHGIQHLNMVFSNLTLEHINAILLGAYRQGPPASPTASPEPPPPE
# Outline: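 Substrate SUVs of EPC or POPC with 14C-cholesterol (20:1 molar ratio), in 10 mM Tris, 0.14 M NaCl, 1 mM EDTA, pH 7.4, were preincubated with peptide or equal mass of plasma ApoA-I. Reaction started with human plasma LCAT; activation was measured as cholesterol-to-ester conversion relative to ApoA-I (100%).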
# [3] = percent helicity, peptide-micelle complexes, Ri=100, 37° C.
# [4] = LCAT activation as compared with native human ApoA-I (= 100%), equivalent masses
Molecule,He (%) TFE ([1]; percent helicity),He (%) free ([1]; percent helicity),He (%) SUVs ([1]; percent helicity),"He (%) mics [1, 3]","ACTIVITY (%) LCAT [2, 4]",He (%) mics [1],ACTIVITY (%) LCAT [2]
"CC(C)C[C@H](NC(=O)[C@H](CCCCN)NC(=O)[C@H](CCC(N)=O)NC(=O)[C@H](CCCCN)NC(=O)[C@H](Cc1c[nH]c2ccccc12)NC(=O)[C@H](C)NC(=O)[C@H](CCC(=O)O)NC(=O)[C@H](CC(C)C)NC(=O)C(C)(C)NC(=O)[C@H](CCC(=O)O)NC(=O)[C@H](CC(N)=O)NC(=O)[C@H](CC(C)C)NC(=O)[C@H](CC(C)C)NC(=O)[C@H](CCC(=O)O)NC(=O)[C@H](CCCNC(=N)N)NC(=O)[C@H](Cc1ccccc1)NC(=O)[C@H](CC(C)C)NC(=O)[C@H](CC(=O)O)NC(=O)[C@H](CC(C)C)NC(=O)[C@@H](NC(=O)[C@@H]1CCCN1)C(C)C)C(=O)N[C@@H](CCCCN)C(=O)O [compound 38, PVLDLFRELLNEXLEAWKQKLK] (H-PVLDLFRELLNE[Aib]LEAWKQKLK-OH)",49%,25%,21%,49%,29%,–,–
"EWLKAFYEKVLEKLKELF [peptide 248, reference compound]",–,18%,13%,45%,3%,–,–
PVLDAFRELLEALAQLKK [compound 223],51%,21%,23%,56%,8%,–,–
CC(C)C[C@H](NC(=O)[C@H](C)NC(=O)[C@H](CCC(=O)O)NC(=O)[C@H](CC(C)C)NC(=O)[C@H](CC(C)C)NC(=O)[C@H](CCC(=O)O)NC(=O)[C@H](CC(N)=O)NC(=O)[C@H](CC(C)C)NC(=O)[C@H](CC(C)C)NC(=O)[C@H](CCC(=O)O)NC(=O)[C@H](CCCNC(=N)N)NC(=O)[C@H](Cc1ccccc1)NC(=O)[C@H](CC(C)C)NC(=O)[C@H](CC(=O)O)NC(=O)[C@H](CC(C)C)NC(=O)[C@@H](NC(=O)[C@@H]1CCCN1S(=O)(=O)c1cccc2c(N(C)C)cccc12)C(C)C)C(=O)N[C@@H](CCCCN)C(=O)N[C@@H](CCC(N)=O)C(=O)N[C@@H](CCCCN)C(=O)N[C@@H](CC(C)C)C(=O)N[C@@H](CCCCN)C(=O)O [compound 30],90%,85%,98%,–,–,90%,38%
"CC(C)C[C@H](NC(=O)[C@H](C)NC(=O)[C@H](CCC(=O)O)NC(=O)[C@H](CC(C)C)NC(=O)C(C)(C)NC(=O)[C@H](CCC(=O)O)NC(=O)[C@H](CC(N)=O)NC(=O)[C@H](CC(C)C)NC(=O)[C@H](CC(C)C)NC(=O)[C@H](Cc1c[nH]c2ccccc12)NC(=O)[C@H](CCCNC(=N)N)NC(=O)[C@H](Cc1ccccc1)NC(=O)[C@H](CC(C)C)NC(=O)[C@H](CC(=O)O)NC(=O)[C@H](CC(C)C)NC(=O)[C@@H](NC(=O)[C@@H]1CCCN1)C(C)C)C(=O)N[C@@H](CCCCN)C(=O)N[C@@H](CCC(N)=O)C(=O)N[C@@H](CCCCN)C(=O)N[C@@H](CC(C)C)C(=O)N[C@@H](CCCCN)C(=O)O [compound 108, PVLDLFRWLLNEXLEALKQKLK] (H-PVLDLFRWLLNE[Aib]LEALKQKLK-OH)",54%,28%,–,55%,0%,–,–
